The values that follow come from patent US4229448A, “5-Substituted picolinic acid derivatives and an anti-hypertensive composition containing the same” (Meuji Seika Kaisha Ltd., priority 1978, dated 1980).

Structures can show the parent of a compound that is named as a salt.

The test system of data set [1] is spontaneously hypertensive rats. As to the kind of experiment: Blood pressure changes, Direct Blood Pressure Measuring Method, oral administration (Table 1). The data set is classed as in vivo. The note with it: Rattus norvegicus, read-out: Maximum Depression in Blood Pressure.
Method: Each of the compounds of the invention as indicated below was suspended in a 5% aqueous gum arabic solution and the suspension was administered orally (100 mg/kg) to groups consisting of three spontaneously hypertensive rats (18-23 week old; blood pressure before administration: 170-190 mmHg).
Data set [2] is described as follows: Acute toxicity (LD50), intraperitoneal (Table 1). Type of data set: in vivo. The note with it: mouse, in vivo, ip, male ICR mice, 5 week old, observed 1 week after administration.
Data set [3] concerns spontaneously hypertensive rats. The data set is described as follows: Blood pressure changes, Tail Cuff Method, oral administration (Table 2). Type of data set: in vivo. Conditions: Rattus norvegicus, 100 mg/kg orally, read-out: Maximum Depression in Blood Pressure. The method, then:
Each of the compounds of the invention as indicated below was suspended in a 5% aqueous gum arabic solution and the suspension was administered orally to groups consisting of three spontaneously hypertensive rats (17-23 week old; blood pressure before administration: 170-190 mmHg).

Data set [4] can be described thus: Oral LD50. The note with it: in vivo.
The subject of data set [5] is male mice (ICR strain, 5 week old). The data set is described as follows: Acute toxicity (LD50), intraperitoneal (Table 1). Type of data set: in vivo. Conditions: observed 1 week after administration, 10080 min.
For data set [6] the following is noted: prior art; cited from earlier work.
For data set [7] the following is noted: prior art; cited from earlier work. The source holds these as a separate data set.
A short description of data set [8]: Water solubility. The data set is classed as physicochemical. The note with it: suited for subcutaneous injection.
Setting [9] is: 100 mg/kg orally, spontaneously hypertensive rats, Direct Blood Pressure Measuring Method.

For the compound `O=C(O)c1ccc(Oc2ccc(Cl)cc2Cl)cn1` [5-(2,4-Dichlorophenoxy)picolinic Acid], the inhibition in vivo at 100 mg/kg in data set [1] (setting [9]) worked out at 24.6%. Moreover, in data set [2], the LD50 at 168 h is 150 to 200 mg/kg. For `COc1ccc(Oc2ccc(C(=O)O)nc2)c(OC)c1` [5-(2,4-Dimethoxyphenoxy)picolinic Acid] the same measures were 19.2% and 400 to 450 mg/kg. The like results for `Cc1ccc(Oc2ccc(C(=O)O)nc2)c(C)c1` [5-(2,4-Dimethylphenoxy)picolinic Acid] were, in that order, 16.9% and 250 to 300 mg/kg. Turning to `O=C(O)c1ccc(Oc2ccc(C(F)(F)F)cc2C(F)(F)F)cn1` [5-(2,4-Ditrifluoromethylphenoxy)picolinic Acid], the inhibition in vivo at 100 mg/kg in data set [1] (setting [9]) is 25.5%. Besides, in data set [2], the LD50 at 168 h was 200 to 250 mg/kg.

On to `O=C(O)c1ccc(Oc2c(Cl)cccc2Cl)cn1` [5-(2,6-Dichlorophenoxy)picolinic Acid], for which the inhibition in vivo at 100 mg/kg in data set [1] (setting [9]) came to 23.7%. This compound also displayed an LD50 at 168 h in data set [2] of 150 to 200 mg/kg.

On to `O=C(O)c1ccc(OCCCCl)cn1` [5-(3-Chloropropoxy)picolinic Acid, 5-(3-chloropropoxy)picolinic acid], for which, in data set [1] (setting [9]), the inhibition in vivo at 100 mg/kg worked out at 18.2%. This compound came in with an LD50 at 168 h in data set [2] of 150 to 200 mg/kg.

In the case of `NC(=O)c1ccc(OCCCCCl)cn1` [5-(4-Chlorobutoxy)picolinic Acid Amide, 5-(4-chlorobutoxy)picolinic acid amide], the inhibition in vivo at 100 mg/kg in data set [3] was 21.5%. In data set [4], this compound registered an LD50 of 1500 to 1600 mg/kg. In data set [4], `O=C(O)c1ccc(OCCCCCl)cn1` [5-(4-Chlorobutoxy)picolinic Acid, 5-(4-chlorobutoxy)picolinic acid] had an LD50 of 900 mg/kg. In data set [1] (setting [9]), the inhibition in vivo at 100 mg/kg turned out to be 23%. Also, the “Acute Toxicity (LD50)” value in data set [5] fell in the range of 150 to 200 mg/kg. On to `O=C(O)c1ccc(OCCCCC(F)(F)F)cn1` [5-(5,5,5-Trifluoropentyloxy)picolinic Acid] [5-(5,5,5-trifluoropentyloxy)picolinicacid], for which the “Acute Toxicity (LD50)” value in data set [5] fell in the range of 150 to 200 mg/kg. For `O=C(O)c1ccc(OCCCCC(F)(F)F)cn1` [5-(5,5,5-trifluoropentyloxy)picolinicacid], in data set [1] (setting [9]), the inhibition in vivo at 100 mg/kg came to 28.7%. In the case of `O=C(O)c1ccc(Oc2cccc(Cl)c2)cn1` [5-(m-Chlorophenoxy)picolinic Acid, 5-(m-chlorophenoxy)picolinic acid], in data set [1] (setting [9]), the inhibition in vivo at 100 mg/kg was found to be 16.7%. In addition, the LD50 at 168 h in data set [2] is 300 to 400 mg/kg. The like results for `O=C(O)c1ccc(Oc2cccc(C(F)(F)F)c2)cn1` [5-(m-trifluoromethylphenoxy)picolinic acid] were, in that order, 20.8% and 500 to 600 mg/kg. As to `NC(=O)c1ccc(Oc2ccccc2Cl)cn1` [5-(o-Chlorophenoxy)picolinic Acid Amide], in data set [3], the inhibition in vivo at 100 mg/kg is 19.6%. With `O=C(O)c1ccc(Oc2ccccc2Cl)cn1` [5-(o-Chlorophenoxy)picolinic Acid, 5-(o-chlorophenoxy)picolinic acid], in data set [4], the LD50 was in the range of 400 to 600 mg/kg. The inhibition in vivo at 100 mg/kg in data set [1] (setting [9]) is 30.1%. In addition, the LD50 at 168 h in data set [2] was 150 to 200 mg/kg. As to `NC(=O)c1ccc(Oc2ccccc2C(F)(F)F)cn1` [5-(o-trifluoromethylphenoxy)picolinic acid amide], the inhibition in vivo at 100 mg/kg in data set [3] turned out to be 20.7%. Also, in data set [4], the LD50 was found to be 950 mg/kg. As for `O=C(O)c1ccc(Oc2ccccc2C(F)(F)F)cn1` [5-(o-trifluoromethylphenoxy)picolinic acid], the 50% lethal dose (LD50) in data set [4] was in the range of 400 to 600 mg/kg. Also, the inhibition in vivo at 100 mg/kg in data set [1] (setting [9]) amounted to 27.6%. In addition, the LD50 at 168 h in data set [2] was in the range of 150 to 200 mg/kg. Turning to `CC(=O)c1ccc(Oc2ccc(C(=O)O)nc2)cc1` [5-(p-Acetylphenoxy)picolinic Acid], the inhibition in vivo at 100 mg/kg in data set [1] (setting [9]) is 17.3%. Further, in data set [2], the median lethal dose (LD50) at 168 h fell in the range of 400 to 500 mg/kg.

Regarding `O=C(O)c1ccc(Oc2ccc(Br)cc2)cn1` [5-(p-Bromophenoxy)picolinic Acid, 5-(p-bromophenoxy)picolinic acid], the inhibition in vivo at 100 mg/kg in data set [1] (setting [9]) is 27.5%. This compound had an LD50 at 168 h in data set [2] of 150 to 200 mg/kg.

As to `NC(=O)c1ccc(Oc2ccc(Cl)cc2)cn1` [5-(p-Chlorophenoxy)picolinic Acid Amide, 5-(p-chlorophenoxy)picolinic acid amide], the inhibition in vivo at 100 mg/kg in data set [3] came out at 23.7%. `O=C(O)c1ccc(Oc2ccc(Cl)cc2)cn1` [5-(p-Chlorophenoxy)picolinic Acid, 5-(p-chlorophenoxy)picolinic acid]: the 50% lethal dose (LD50) in data set [4] was in the range of 400 to 600 mg/kg. For the same compound, the inhibition in vivo at 100 mg/kg in data set [1] (setting [9]) was found to be 28.3%. Besides, the “Acute Toxicity (LD50)” value in data set [5] lay within 150 to 200 mg/kg.

For the compound `COc1ccc(Oc2ccc(C(=O)O)nc2)cc1` [5-(p-Methoxyphenoxy)picolinic Acid, 5-(p-methoxyphenoxy)picolinic acid], the inhibition in vivo at 100 mg/kg in data set [1] (setting [9]) worked out at 14.2%. Besides, the 50% lethal dose (LD50) at 168 h in data set [2] was 500 to 600 mg/kg. Consider `Cc1ccc(Oc2ccc(C(=O)O)nc2)cc1` [5-(p-Methylphenoxy)picolinic Acid, 5-(p-methylphenoxy)picolinic acid], for which, in data set [1] (setting [9]), the inhibition in vivo at 100 mg/kg was determined as 17%. Besides, in data set [2], the LD50 at 168 h fell in the range of 200 to 300 mg/kg.

As to `O=C(O)c1ccc(Oc2ccc([N+](=O)[O-])cc2)cn1` [5-(p-Nitrophenoxy)picolinic Acid, 5-(p-nitrophenoxy)picolinic acid], the inhibition in vivo at 100 mg/kg in data set [1] (setting [9]) was 15.1%. Moreover, the median lethal dose (LD50) at 168 h in data set [2] lay within 500 to 600 mg/kg. `Cl.Cl.Nc1ccc(Oc2ccc(C(=O)O)nc2)cc1` [5-(p-aminophenoxy)picolinic acid dihydrochloride]: the inhibition in vivo at 100 mg/kg in data set [1] (setting [9]) was determined as 8.3%. Moreover, in data set [2], the median lethal dose (LD50) at 168 h is 450 to 500 mg/kg.

With `O=C(O)c1ccc(Oc2ccc(C(F)(F)F)cc2)cn1` [5-(p-trifluoromethylphenoxy)picolinic acid], the inhibition in vivo at 100 mg/kg in data set [1] (setting [9]) came out at 29.3%. Besides, the LD50 at 168 h in data set [2] was 200 to 250 mg/kg. For the compound `O=C(Oc1ccc2c(c1)CCC2)c1ccc(OCCCCCl)cn1` [5-indanyl ester of 5-(4-chlorobutoxy)picolinic acid], the inhibition in vivo at 100 mg/kg in data set [3] came out at 26.3%. In data set [4], the LD50 was in the range of 1600 to 1800 mg/kg. Take `CCCCOc1ccc(C(=O)O)nc1` [5-n-Butoxy-picolinic Acid, reference compound]: the inhibition in vivo at 100 mg/kg in data set [1] (setting [9]) came to 16.6%. In data set [2], this compound registered an LD50 at 168 h of 100 to 150 mg/kg.

With `O=C(O)c1ccc(OCCCCCl)cn1` [Calcium Salt of 5-(4-Chlorobutoxy)picolinic Acid] [Calcium 5-(4-chlorobutoxy)picolinate], the “Acute Toxicity (LD50)” value in data set [5] was 800 to 1000 mg/kg. Still for that read-out and setting: the same measure for `O=C(O)c1ccc(OCCCCC(F)(F)F)cn1` [Calcium Salt of 5-(5,5,5-Trifluoropentyloxy)picolinic Acid] [Calcium 5-(5,5,5-trifluoropentyloxy)picolinate]: 800 to 900 mg/kg; for `O=C(O)c1ccc(Oc2ccc(Cl)cc2)cn1` [Calcium Salt of 5-(p-Chlorophenoxy)picolinic Acid]: 350 to 400 mg/kg. With `CCCCc1ccc(C(=O)O)nc1` [Fusaric Acid, 5-n-butylpicolinic acid, reference compound], the “LD50 value (in words)” value in data set [6] is given as “low LD50 value”. In addition, the inhibition in vivo at 100 mg/kg in data set [1] was found to be 15.8%. The LD50 at 168 h in data set [2] is 75 to 100 mg/kg. The “anti-hypertensive activity (in words)” value in data set [7] is on record as “useful as an anti-hypertensive agent”.

For `O=C(Oc1ccc2c(c1)CCC2)c1ccc(Oc2ccccc2C(F)(F)F)cn1` [Indanyl Ester of 5-(o-Trifluoromethylphenoxy)picolinic Acid], in data set [3], the inhibition in vivo at 100 mg/kg amounted to 26.3%.

Regarding `CN(C)CCOC(=O)c1ccc(OCCCCCl)cn1` [dimethylaminoethyl ester of 5-(4-chlorobutoxy)picolinic acid hydrochloride], in data set [8], the water solubility result is given as “increased water solubility”. On to `CCOC(=O)c1ccc(Oc2ccc(Cl)cc2)cn1` [ethyl ester of 5-(p-chlorophenoxy)picolinic acid], for which, in data set [3], the inhibition in vivo at 100 mg/kg was found to be 23.3%. Same read-out and setting: the same measure for `O=C(Oc1ccc2c(c1)CCC2)c1ccc(Oc2ccccc2Cl)cn1` [indanyl ester of 5-(o-chlorophenoxy)picolinic acid]: 29%. Turning to `O=C(Oc1ccc2c(c1)CCC2)c1ccc(Oc2ccc(Cl)cc2)cn1` [indanyl ester of 5-(p-chlorophenoxy)picolinic acid], the inhibition in vivo at 100 mg/kg in data set [3] was 27.5%. In addition, the LD50 in data set [4] fell in the range of 700 to 800 mg/kg. For `CC(OC(=O)c1ccc(Oc2ccc(Cl)cc2)cn1)OC(=O)C(C)(C)C` (stereo not drawn) [α-pivaloyloxyethyl ester of 5-(p-chlorophenoxy)picolinic acid] the same measures were 21.8% and 900 to 1000 mg/kg.
